Entries after “also recorded” stand apart in the source; their conditions may differ.
Legend:
Format in all cases: in vivo, mouse (Balb/c)
[1] = tested on: influenza virus PR 8 (H1N1); experiment: Oral administration of sphingomyelin, prevention of influenza virus infection in mice (nasal cavity wash virus titer, plaque method with MDCK cell); conditions: for Nasal cavity virus titer x (PFU/ml: 10^x): 1×10^3 pfu PR 8 (H1N1), nasal cavity washes 3 days after infection
Description: (Verification of the Effect of Oral Administration of Sphingomyelin on the Prevention of Infection with an Influenza Virus)
A mouse (Balb/c, male, 6 weeks of age) was infected with 1×10^3 pfu in viral quantity of influenza virus PR 8 (H1N1). Before the infection treatment, sphingomyelin was orally administered, and its infection preventive effect was judged by the virus titer in the nasal cavity washes 3 days after the virus infection. In carrying out the oral administration, sphingomyelin was used by dispersing in water. A plaque method which uses MDCK cell was used in the judgment.
This indicates the effect of sphingomyelin to prevent infection with an influenza virus.

[2] = tested on: A/Guizhou virus (type A influenza virus); experiment: Transnasal sphingomyelin with simultaneous type A influenza virus infection in mice (nasal cavity wash virus titer, plaque method with MDCK cell)
Description: (§1) (Verification of the Effect to Prevent Infection with Type A Influenza Virus and Type B Influenza Virus)
(§2) Mice (Balb/c, male, 6 weeks of age) were transnasally infected with A/Guinzhou virus as the type A influenza virus or B/Ibaraki virus as the type B influenza virus, and at the same time, a 100 μg/ml solution of the sphingomyelin (SPM) obtained in Example 1 was transnasally administered at a dose of 5 μl/nasal cavity dose (dose: 0.5 μg), and the preventive effect on the infection with an influenza virus was judged by the virus titer in the nasal cavity washes. In this connection, groups transnasally infected with respective influenza viruses alone were prepared. A plaque method which uses MDCK cell was used in the judgment.

[3] = tested on: B/Ibaraki virus (type B influenza virus); experiment: Transnasal sphingomyelin with simultaneous type B influenza virus infection in mice (nasal cavity wash virus titer, plaque method with MDCK cell)
Description: as §1, §2

sphingomyelin [SPM]
Nasal cavity virus titer x (PFU/ml: 10^x) ([1]; 1 mg oral before infection): 2.23 ± 0.16 PFU/ml: 10^x
Nasal cavity virus titer x (PFU/ml: 10^x) ([1]; 10 mg oral before infection): 2.15 ± 0.29 PFU/ml: 10^x
Nasal cavity virus titer in administration group (in words) ([1]; oral administration group versus control (no administration)): lowered with significance
Nasal cavity virus titer ([2]; A/Guizhou virus, transnasal 100 μg/ml, 5 μl/nasal cavity (dose 0.5 μg) at the same time as infection): 1.99 ± 0.31
Infection preventive effect (in words) ([2]; type A influenza virus, transnasal administration): confirmed; also recorded: more considerable effect
Nasal cavity virus titer ([3]; B/Ibaraki virus, transnasal 100 μg/ml, 5 μl/nasal cavity (dose 0.5 μg) at the same time as infection): 2.73 ± 0.06
Infection preventive effect (in words) ([3]; type B influenza virus, transnasal administration): confirmed

From patent US20120277187A1, “Agent for Preventing Infection” (priority 2006, published 2012)
